Our source for the zone of inhibition and MIC values is ChEMBL document CHEMBL3045805, “Synthesis, characterization, and antimicrobial activity of some new coumarin derivatives” (Med Chem Res, 2012).

Values after ≈ are worked out from the molar mass of the structure shown.

The test system of assay [1] is Staphylococcus aureus. Put plainly: Antibacterial activity against Staphylococcus aureus at 50 ug/ml after 24 hr by agar diffusion method. As to conditions: read-out: DIZ. It counts as functional.
For assay [2], the system named is Escherichia coli. In words: Antibacterial activity against Escherichia coli at 50 ug/ml after 24 hr by agar diffusion method. It counts as functional. As to conditions: read-out: DIZ.
In assay [3] the test system is Klebsiella pneumoniae. Put plainly: Antibacterial activity against Klebsiella pneumoniae at 50 ug/ml after 24 hr by agar diffusion method. It counts as functional. As to conditions: read-out: DIZ.
Assay [4] has as its system Staphylococcus aureus. Put plainly: Antibacterial activity against Staphylococcus aureus after 24 hr. It counts as functional.
In assay [5] the test system is Escherichia coli. Put plainly: Antibacterial activity against Escherichia coli after 24 hr. The assay is classed as functional.
Assay [6] relates to Klebsiella pneumoniae. Put plainly: Antibacterial activity against Klebsiella pneumoniae after 24 hr. The assay is classed as functional.
Assay [7] relates to Staphylococcus aureus. In words: Antibacterial activity against Staphylococcus aureus at 1 ug/ml after 24 hr by agar diffusion method. The settings on record: read-out: DIZ.
The test system of assay [8] is Klebsiella pneumoniae. Put plainly: Antibacterial activity against Klebsiella pneumoniae at 1 ug/ml after 24 hr by agar diffusion method. The settings on record: read-out: DIZ.

Take `COc1ccc2c(CNc3ccc4c(C)cc(=O)oc4c3)cc(=O)oc2c1`: the figures for the zone of inhibition at 50 µg/mL in the assay on Staphylococcus aureus [1], in the assay with Escherichia coli [2] and in the assay on Klebsiella pneumoniae [3] were 10 mm, 12 mm and 20 mm, respectively. The results for the MIC with Staphylococcus aureus [4], against Escherichia coli [5] and in the assay with Klebsiella pneumoniae [6] were 91.9 µg/mL (≈ 253 µM), 45.9 µg/mL (≈ 126 µM) and 22.9 µg/mL (≈ 63 µM), respectively.

Regarding `COc1ccc2c(CNc3ccc4c(C)cc(=O)oc4c3)c(Br)c(=O)oc2c1`, the zone of inhibition at 50 µg/mL in the assay with Staphylococcus aureus [1] came out at 10 mm; in the assay with Escherichia coli [2], 11 mm; in the assay with Klebsiella pneumoniae [3], 14 mm. The MIC was 92.8 µg/mL (≈ 210 µM) with Staphylococcus aureus [4], 46.4 µg/mL (≈ 105 µM) with Escherichia coli [5] and 46.4 µg/mL (≈ 105 µM) against Klebsiella pneumoniae [6].

As for `CCOC(=O)c1oc2cc(OC)ccc2c1CNc1ccc2c(C)cc(=O)oc2c1`, the values for the zone of inhibition at 50 µg/mL with Staphylococcus aureus [1], in the assay on Escherichia coli [2] and with Klebsiella pneumoniae [3] were 11 mm, 11 mm and 14 mm, respectively. The MIC is > 100 µg/mL in the assay with Staphylococcus aureus [4], 51.6 µg/mL (≈ 127 µM) in the assay on Escherichia coli [5] and 25.8 µg/mL (≈ 63.3 µM) against Klebsiella pneumoniae [6].

On to `Cc1ccc(S(=O)(=O)NNC(=O)COc2ccc3c(C)cc(=O)oc3c2)cc1`, for which the zone of inhibition at 50 µg/mL with Staphylococcus aureus [1] was 10 mm; in the assay on Escherichia coli [2] it was 11 mm; in the assay on Klebsiella pneumoniae [3] it was 10 mm. The MIC in the assay on Staphylococcus aureus [4] was 98.4 µg/mL (≈ 245 µM); against Escherichia coli [5], 98.4 µg/mL (≈ 245 µM); with Klebsiella pneumoniae [6], 49.2 µg/mL (≈ 122 µM).

For the compound `Cc1cc(=O)oc2cc(OCC(=O)NNS(=O)(=O)c3ccc(F)cc3)ccc12`, the zone of inhibition at 50 µg/mL in the assay on Staphylococcus aureus [1] came to 9 mm; with Escherichia coli [2] it was 12 mm; with Klebsiella pneumoniae [3], 12 mm. Further, the minimal inhibitory concentration (MIC) was found to be 96.6 µg/mL (≈ 238 µM) in the assay on Staphylococcus aureus [4], 24.1 µg/mL (≈ 59.3 µM) with Escherichia coli [5] and 48.3 µg/mL (≈ 119 µM) against Klebsiella pneumoniae [6].

For the compound `Cc1cc(=O)oc2cc(OCC(=O)NNS(=O)(=O)c3ccc(Cl)cc3)ccc12`, the zone of inhibition at 50 µg/mL came out at 9 mm in the assay on Staphylococcus aureus [1], 12 mm with Escherichia coli [2] and 10 mm with Klebsiella pneumoniae [3]. Further, the MIC was > 100 µg/mL in the assay on Staphylococcus aureus [4], 55.3 µg/mL (≈ 131 µM) against Escherichia coli [5] and 27.7 µg/mL (≈ 65.5 µM) with Klebsiella pneumoniae [6].

For the compound `Cc1cc(=O)oc2cc(OCC(=O)NNS(=O)(=O)c3ccc(Br)cc3)ccc12`, the zone of inhibition at 50 µg/mL came out at 14 mm with Staphylococcus aureus [1], 12 mm in the assay on Escherichia coli [2] and 11 mm in the assay with Klebsiella pneumoniae [3]. Moreover, the minimum inhibitory concentration (MIC) against Staphylococcus aureus [4] was 85.1 µg/mL (≈ 182 µM); against Escherichia coli [5] it was 42.6 µg/mL (≈ 91.2 µM); with Klebsiella pneumoniae [6], 42.6 µg/mL (≈ 91.2 µM).

In the case of `Cc1cc(=O)oc2cc(OCC(=O)NNS(=O)(=O)c3cccc([N+](=O)[O-])c3)ccc12`, the values for the zone of inhibition at 50 µg/mL in the assay on Staphylococcus aureus [1], in the assay with Escherichia coli [2] and in the assay with Klebsiella pneumoniae [3] were 10 mm, 13 mm and 14 mm, respectively. Also, the values for the MIC with Staphylococcus aureus [4], with Escherichia coli [5] and against Klebsiella pneumoniae [6] were > 100 µg/mL, 26 µg/mL (≈ 60 µM) and 52 µg/mL (≈ 120 µM), respectively.

Take `Cc1cc(=O)oc2cc(OCC(=O)NNS(=O)(=O)c3ccc(C(F)(F)F)cc3)ccc12`: the zone of inhibition at 50 µg/mL was determined as 11 mm with Staphylococcus aureus [1], 13 mm with Escherichia coli [2] and 15 mm with Klebsiella pneumoniae [3]. For the same compound, the figures for the minimal inhibitory concentration (MIC) against Staphylococcus aureus [4], in the assay on Escherichia coli [5] and in the assay on Klebsiella pneumoniae [6] were 89.1 µg/mL (≈ 195 µM), 44.5 µg/mL (≈ 97.5 µM) and 44.5 µg/mL (≈ 97.5 µM), respectively.

With `Cc1cc(=O)oc2cc(OCC(=O)NNc3ccnc4c(Cl)cccc34)ccc12`, the zone of inhibition at 50 µg/mL in the assay on Staphylococcus aureus [1] amounted to 10 mm; with Escherichia coli [2], 13 mm; in the assay with Klebsiella pneumoniae [3] it was 13 mm. In addition, the MIC in the assay with Staphylococcus aureus [4] is > 100 µg/mL; in the assay on Escherichia coli [5], 28.9 µg/mL (≈ 70.5 µM); in the assay with Klebsiella pneumoniae [6], 57.8 µg/mL (≈ 141 µM).

Take `O=C(O)c1cn(C2CC2)c2cc(N3CCNCC3)c(F)cc2c1=O` [CIPROFLOXACIN]: the zone of inhibition at 1 µg/mL in the assay with Staphylococcus aureus [7] was determined as 24 mm; in the assay with Klebsiella pneumoniae [8] it was 20 mm. The MIC in the assay on Staphylococcus aureus [4] was determined as 0.6 µg/mL (≈ 1.81 µM); with Escherichia coli [5], 0.6 µg/mL (≈ 1.81 µM); with Klebsiella pneumoniae [6], 1.3 µg/mL (≈ 3.92 µM).
